# Values quoted from earlier work in patent US9763983B2, “Natural killer cells from placenta” (ANTHROGENESIS CORPORATION, priority 2013, dated 2017).
# Conditions: disclosed in US 2005/0096351 A1
row,SMILES,stability / interconversion of polymorphic form
1,"Nc1cccc2c1CN(C1CCC(=O)NC1=O)C2=O (stereo not shown) [Form C, 3-(4-amino-1-oxo-1,3 dihydro-isoindol-2-yl)-piperidene-2,6-dione]",can convert to Form B at higher relative humidities
2,"Nc1cccc2c1CN(C1CCC(=O)NC1=O)C2=O (stereo not shown) [Form B, 3-(4-amino-1-oxo-1,3 dihydro-isoindol-2-yl)-piperidene-2,6-dione]",converts to Form E in aqueous solvent systems
3,"Nc1cccc2c1CN(C1CCC(=O)NC1=O)C2=O (stereo not shown) [Form D, 3-(4-amino-1-oxo-1,3 dihydro-isoindol-2-yl)-piperidene-2,6-dione]",convert to Form B when stressed at higher relative humidities
4,"Nc1cccc2c1CN(C1CCC(=O)NC1=O)C2=O (stereo not shown) [Form A, 3-(4-amino-1-oxo-1,3 dihydro-isoindol-2-yl)-piperidene-2,6-dione]",most thermodynamically stable anhydrous polymorph

# Same assay, conditions: polymorphic form; disclosed in US 2005/0096351 A1
row,hygroscopicity,SMILES
1,not hygroscopic below about 85% RH,"Nc1cccc2c1CN(C1CCC(=O)NC1=O)C2=O (stereo not shown) [Form C, 3-(4-amino-1-oxo-1,3 dihydro-isoindol-2-yl)-piperidene-2,6-dione]"
2,either weakly or not hygroscopic,"Nc1cccc2c1CN(C1CCC(=O)NC1=O)C2=O (stereo not shown) [Form D, 3-(4-amino-1-oxo-1,3 dihydro-isoindol-2-yl)-piperidene-2,6-dione]"
3,weakly or not hygroscopic,"Nc1cccc2c1CN(C1CCC(=O)NC1=O)C2=O (stereo not shown) [Form A, 3-(4-amino-1-oxo-1,3 dihydro-isoindol-2-yl)-piperidene-2,6-dione]"
